Values quoted from earlier work as cited in US8741809B2, “Liquid pyraclostrobin-containing crop protection formulations” (BASF SE, priority 2008, dated 2014).

Settings: at 20° C.

Structure (SMILES) | solubility of the respective solvent in water
CC(=O)c1ccccc1 [acetophenone] | (5.5 g/l)
OCc1ccccc1 [benzyl alcohol] | (39 g/l)
O=C1CCCCC1 [cyclohexanone] | (24 g/l)
